What was measured:
[1] = target: T1, recombinant human ALK5 (TGF-βR1) protein (Homo sapiens, UniProt P36897); test: Biochemical ALK5 (TGF-βR1) assay to measure pKi (LANCE Ultra ULight kinase assay); conditions: apparent pKi from pIC50 by Cheng-Prusoff, read-out: ALK5 pKi (converted)
T1 construct: purchased Life Technologies PR9075A
T1 sequence (P36897 34-503): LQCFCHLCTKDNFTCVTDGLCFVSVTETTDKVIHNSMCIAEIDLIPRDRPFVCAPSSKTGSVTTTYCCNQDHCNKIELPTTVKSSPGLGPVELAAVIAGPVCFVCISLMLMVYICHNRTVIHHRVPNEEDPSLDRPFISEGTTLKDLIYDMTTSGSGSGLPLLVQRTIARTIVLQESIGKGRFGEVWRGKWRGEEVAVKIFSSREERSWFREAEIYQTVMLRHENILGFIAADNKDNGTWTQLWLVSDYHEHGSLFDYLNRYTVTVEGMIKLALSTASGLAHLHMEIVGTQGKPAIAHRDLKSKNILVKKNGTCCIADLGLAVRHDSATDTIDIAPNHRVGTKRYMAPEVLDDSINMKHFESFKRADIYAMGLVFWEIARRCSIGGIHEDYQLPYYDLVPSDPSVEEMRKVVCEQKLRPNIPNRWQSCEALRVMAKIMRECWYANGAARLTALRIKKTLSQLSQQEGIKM
Procedure, shortened: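 Compounds (10 μM to 25 pM) were preincubated 60 min at room temperature with enzyme, then reactions were started with ATP (125 μM stock, 5× final) and run 60 min at 37 °C. EDTA-containing Eu-anti-phospho-Topo IIα (Thr1342) antibody stopped the reaction; TR-FRET read at 665 nm. pIC50 from 4-parameter fit, converted to pKi via Cheng-Prusoff.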

[2] = tested on: TGF-β-stimulated SMAD3 phosphorylation in BEAS-2B cells; test: Cellular ALK5 potency assay, inhibition of TGF-β stimulated pSMAD3 formation in BEAS-2B cells; type: cell-based; conditions: Homo sapiens; inhibition of TGF-β stimulated pSMAD3 formation, BEAS-2B cells; read-out: BEAS2B pIC50 (converted)
Procedure, shortened: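 SMAD3 phosphorylation was measured by AlphaLISA after 30 min TGF-β stimulation (10 ng/mL final) of BEAS-2B cells preincubated 1 h with compound at 37 °C. Results given as pIC50.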

Ki [1] [nM]	Structure (SMILES)	IC50 [2] [nM]
0.0398 to 0.316	Cc1cccc(-c2[nH]ncc2-c2ccc3ncc(C(=O)O[C@@H]4CCCNC4)cc3c2)n1 [Compound 1203, [(3R)-3-piperidyl] 6-[5-(6-methyl-2-pyridyl)-1H-pyrazol-4-yl]quinoline-3-carboxylate]	25.1 to 158
0.0398 to 0.316	Cc1cccc(-c2n[nH]cc2-c2ccc3ncc(-c4cn(Cc5cccnc5)nn4)cc3n2)n1 [Compound 35, 2-[3-(6-methyl-2-pyridyl)-1H-pyrazol-4-yl]-7-[1-(3-pyridylmethyl)triazol-4-yl]-1,5-naphthyridine]	< 20
< 0.0316	Cc1cccc(-c2n[nH]cc2-c2ccc3ncc(C(=O)NCCN4CCOCC4)cc3n2)n1 [Compound 44, 6-[3-(6-methyl-2-pyridyl)-1H-pyrazol-4-yl]-N-(2-morpholinoethyl)-1,5-naphthyridine-3-carboxamide]	25.1 to 158
< 0.0316	Cc1cccc(-c2n[nH]cc2-c2ccc3ncc(-c4cn[nH]c4)cc3n2)n1 [Compound 233, 2-[3-(6-methyl-2-pyridyl)-1H-pyrazol-4-yl]-7-(1H-pyrazol-4-yl)-1,5-naphthyridine]	< 20
0.398 to 3.16	Cc1cccc(-c2n[nH]cc2-c2ccc3ncc(-c4cn(-c5ccccn5)nn4)cc3n2)n1 [Compound 680, 2-[3-(6-methyl-2-pyridyl)-1H-pyrazol-4-yl]-7-[1-(2-pyridyl)triazol-4-yl]-1,5-naphthyridine]	200 to 1260
3.98 to 31.6	Cc1cccc(-c2n[nH]cc2-c2ccc3nccc(CN(C)CCN4CCOCC4)c3n2)n1 [Compound 828, N-methyl-N-[[6-[3-(6-methyl-2-pyridyl)-1H-pyrazol-4-yl]-1,5-naphthyridin-4-yl]methyl]-2-morpholino-ethanamine]	25.1 to 158
0.398 to 3.16	Cc1cccc(-c2nn(C3CCCCO3)cc2-c2ccc3ncc(-c4cnoc4)cc3n2)n1 (stereo not shown) [Compound 203, 4-[6-[3-(6-methyl-2-pyridyl)-1-tetrahydropyran-2-yl-pyrazol-4-yl]-1,5-naphthyridin-3-yl]isoxazole]	200 to 1260
0.398 to 3.16	Cc1cccc(-c2n[nH]cc2-c2ccc3ncc(N4C[C@H]5C[C@@H]4CN5C)cc3n2)n1 (racemic) [Compound 437, 2-[3-(6-methyl-2-pyridyl)-1H-pyrazol-4-yl]-7-[rac-(1R,4R)-5-methyl-2,5-diazabicyclo[2.2.1]heptan-2-yl]-1,5-naphthyridine]	25.1 to 158
0.0398 to 0.316	Cc1cccc(-c2[nH]cnc2-c2ccc3ncc(-c4ccc(C(=O)O[C@@H]5CCNC5)nc4)cc3c2)n1 [Compound 1110, [(3R)-pyrrolidin-3-yl] 5-[6-[5-(6-methyl-2-pyridyl)-1H-imidazol-4-yl]-3-quinolyl]pyridine-2-carboxylate]	200 to 1260
< 0.0316	Cc1cccc(-c2n[nH]cc2-c2ccc3ncc(N4CCN(CCN(C)C)CC4)cc3n2)n1 [Compound 292, N,N-dimethyl-2-[4-[6-[3-(6-methyl-2-pyridyl)-1H-pyrazol-4-yl]-1,5-naphthyridin-3-yl]piperazin-1-yl]ethanamine]	25.1 to 158
0.0398 to 0.316	Cc1cccc(-c2[nH]cnc2-c2ccc3ncc(-c4nc(C(=O)OCCN5C[C@@H](C)N[C@@H](C)C5)cs4)cc3c2)n1 [Compound 1226, 2-[(3R,5S)-3,5-dimethylpiperazin-1-yl]ethyl 2-[6-[5-(6-methyl-2-pyridyl)-1H-imidazol-4-yl]-3-quinolyl]thiazole-4-carboxylate]	25.1 to 158
0.0398 to 0.316	Cc1cccc(-c2[nH]cnc2-c2ccc3ncc(C4=CCC(NCC5CCC(=O)O5)CC4)cc3c2)n1 (stereo not shown) [Compound 590, 5-[[[4-[6-[5-(6-methyl-2-pyridyl)-1H-imidazol-4-yl]-3-quinolyl]cyclohex-3-en-1-yl]amino]methyl]tetrahydrofuran-2-one]	25.1 to 158
0.0398 to 0.316	CN[C@H]1CC[C@@H](OC(=O)c2cnc3ccc(-c4cn[nH]c4-c4cccc(C)n4)cc3c2)CC1 [Compound 1195, [4-(methylamino)cyclohexyl] 6-[5-(6-methyl-2-pyridyl)-1H-pyrazol-4-yl]quinoline-3-carboxylate]	25.1 to 158
< 0.0316	Cc1cccc(-c2n[nH]cc2-c2ccc3ncc(-c4cc5n(n4)CCNC5)cc3n2)n1 [Compound 83, 2-[3-(6-methyl-2-pyridyl)-1H-pyrazol-4-yl]-7-(4,5,6,7-tetrahydropyrazolo[1,5-a]pyrazin-2-yl)-1,5-naphthyridine]	< 20
0.0398 to 0.316	Cc1cccc(-c2[nH]cnc2-c2ccc3ncc(-c4csc(C(=O)O[C@H]5CCN(C)C5)c4)cc3c2)n1 [Compound 755, [(3S)-1-methylpyrrolidin-3-yl] 4-[6-[5-(6-methyl-2-pyridyl)-1H-imidazol-4-yl]-3-quinolyl]thiophene-2-carboxylate]	< 20
< 0.0316	Cc1cccc(-c2[nH]cnc2-c2ccc3ncc(-c4ccc(C(=O)O)cn4)cc3c2)n1 [Compound 1091, 6-[6-[5-(6-methyl-2-pyridyl)-1H-imidazol-4-yl]-3-quinolyl]pyridine-3-carboxylic acid]	1580 to 10000
0.0398 to 0.316	Cc1cccc(-c2n[nH]cc2-c2ccc3ncc(CCCN4CCN(C(C)C)CC4)cc3n2)n1 [Compound 615, 7-[3-(4-isopropylpiperazin-1-yl)propyl]-2-[3-(6-methyl-2-pyridyl)-1H-pyrazol-4-yl]-1,5-naphthyridine]	25.1 to 158
< 0.0316	Cc1cccc(-c2n[nH]cc2-c2ccc3ncc(-c4nnn5c4NCC5)cc3n2)n1 [Compound 5, 7-(5,6-dihydro-4H-imidazo[1,2-c]triazol-3-yl)-2-[3-(6-methyl-2-pyridyl)-1H-pyrazol-4-yl]-1,5-naphthyridine]	25.1 to 158
< 0.0316	Cc1cccc(-c2n[nH]cc2-c2ccc3ncc(N(C)C4CCN(C)C4)cc3n2)n1 (racemic) [Compound 140, N-methyl-6-[3-(6-methyl-2-pyridyl)-1H-pyrazol-4-yl]-N-[rac-(3R)-1-methylpyrrolidin-3-yl]-1,5-naphthyridin-3-amine]	25.1 to 158
0.0398 to 0.316	Cc1cccc(-c2[nH]cnc2-c2ccc3ncc(-c4cncc(C(=O)O[C@H]5CCNC5)c4)cc3c2)n1 [Compound 719, [(3S)-pyrrolidin-3-yl] 5-[6-[5-(6-methyl-2-pyridyl)-1H-imidazol-4-yl]-3-quinolyl]pyridine-3-carboxylate]	200 to 1260
< 0.0316	Cc1cccc(-c2[nH]cnc2-c2ccc3ncc(N4CCC(NCCSC5CCOC5=O)C4)cc3c2)n1 (stereo not shown) [Compound 230, 3-[2-[[1-[6-[5-(6-methyl-2-pyridyl)-1H-imidazol-4-yl]-3-quinolyl]pyrrolidin-3-yl]amino]ethylsulfanyl]tetrahydrofuran-2-one]	25.1 to 158
0.0398 to 0.316	Cc1cccc(-c2[nH]cnc2-c2ccc3ncc(-c4ccc(C(=O)O[C@H]5CCN(C)C5)cc4)cc3c2)n1 [Compound 545, [(3S)-1-methylpyrrolidin-3-yl] 4-[6-[5-(6-methyl-2-pyridyl)-1H-imidazol-4-yl]-3-quinolyl]benzoate]	25.1 to 158
0.0398 to 0.316	Cc1cccc(-c2[nH]cnc2-c2ccc3ncc(-c4cnc5c(c4)CNC5)cc3c2)n1 [Compound 443, 3-(6,7-dihydro-5H-pyrrolo[3,4-b]pyridin-3-yl)-6-[5-(6-methyl-2-pyridyl)-1H-imidazol-4-yl]quinoline]	25.1 to 158

Source: patent publication US11590116B2 (THERAVANCE BIOPHARMA R&D IP, LLC, priority 2019, dated 2023)
